Patent EP4613274A1, “SENOLYTIC COMPOUNDS” (Freie Universität Berlin, priority 2024, dated 2025)

Assays:
C57/BL6 mice [1] = test: Rotarod performance test in aged mice; type: in vivo; conditions: 10-months old mice, 0.25 mg/kg body weight i.v. twice every fortnight, rotarod one month later, versus solvent
Method: To quantify the global impact of POG on age-related physical decline, a rotarod performance test was conducted, which captures the time mice can run on a rotating rod before falling off due to exhaustion.
For the experiments, the results of which are shown in Figure 7A, C57/BL6 mice (10-months old, "old mice") were treated twice with POG (0.25 mg/kg body weight, i.v. injected every fortnight; n = 11) or solvent (n = 11), before their physical performance was assessed using a rotarod device one month later (from 4 to 40 rpm in 180 s; acceleration rate: 0.2 rpm/s). For comparison a cohort of untreated young mice (8-weeks old; n = 10) was measured in parallel. Each datapoint represents the maximum time the (previously trained) animal was able to remain on the rotating rod from 5 consecutive runs per mouse.

A549 = test: Virus-induced senescence (VIS) model, dye exclusion viability test; type: cell-based, human; conditions: lentivirus MOI = 50, POG-4 for 22 h
Method: VIS: The human alveolar epithelial adenocarcinom cell line A549 as well as VIS-deficient VeroB4 cells were infected with a high-titer GFP-expressing lentivirus (pCDH-CMV-MCS-EF1-GFP; MOI = 50) to induce VIS.
(§1) All cells were analyzed at day 10 after start of the treatment and oncogene induction, respectively. Shown in grey in the first (left) column are mean percentages of senescence-associated beta-galactosidase (SA-β-gal)-)positive cells for each treatment. Proliferating cells and their senescent counterpart were exposed to the same increasing concentrations of POG (from left to right: murine Eµ-myc lymphoma cells and primary mouse fibroblasts = 0, 0.2, 0.4, 0.8, and 1.2 µM) POG, for VIS and RS = 0, 2, 3, 4, and 5 µM) POG, and for all others = 0, 1, 2, 3, and 4 µM) POG) for 22 h before measuring their viabilities using a dye exclusion test.
The adenocarcinomic alveolar epithelial cell line A549 as well as VIS-deficient VeroB4 cells were infected with a high-titer GFP-expressing lentivirus (pCDH-CMV-MCS-EF1-GFP; multiplicity of infection [MOI] = 50). At day 6, the cells were stained for SA-β-gal before treating them with increasing concentrations of POG-4. After 22 h, the cell viability was measured using a dye exclusion test. Figure 12 illustrates means ± SD.

[2] = tested on: Eµ-myc;Bcl2 lymphoma cells; test: 22-hours cytotoxicity assay (dye exclusion) in therapy-induced senescence (TIS) model; type: cell-based, murine; conditions: ADR 0.02 µg/ml for 10 d; for senolytic activity in senescent cells protected by expression of catalase: catalase overexpression, POG for 22 h
Method: TIS: Eµ-myc;Bcl2 lymphoma cells (with or without catalase overexpression) and senescence-/p53-deficient Eµ-myc; Bcl2 lymphoma cells were treated with ADR (0.02 µg/ml) or solvent.
as §1
Viability of solvent-treated cells were set to 100% for each treatment and viabilities of POG-treated cells were normalized relative to solvent-treated controls.
The senescent state was documented by specific measurement of increased SA-β-galactosidase activity. […] Eµ-myc;Bcl2 lymphoma cells (with or without ectopic catalase overexpression, introduced via stable retroviral gene transfer) and senescence-/p53-deficient Eµ-myc;Bcl2 lymphoma cells were treated with ADR (0.02 µg/ml) or solvent for 10 d. Proliferating cells and their senescent counterpart were exposed to the same increasing concentrations of POG for 22 h before measuring their viabilities using a dye exclusion test (Ghost Dye Red 780, 13-0865-T500, Tonbo). Viability of solvent-treated cells were set to 100% for each treatment and viabilities of POG-treated cells were normalized relative to solvent-treated controls.

[3] = tested on: Eµ-myc transgenic lymphomas; test: Overall survival of CTX-treated lymphoma-bearing mice with sequential POG exposure; type: in vivo; conditions: CTX 1 × 300 mg/kg i.p. then POG 2 × 0.25 mg/kg i.v.
Method: The inventors also analyzed the impact of a sequential POG exposure on overall survival in chemotherapy-exposed mice bearing senescence-capable vs. senescence-incapable lymphomas. […] In essence, POG treatment led to reduction of senescent cells in vivo, and extended healthy lifespan of aged and anticancer-treated mice.
CTX treatment: 1 × 300 mg/kg body weight via i.p., POG treatment: 2 × 0.25 mg/kg body weight via the i.v. application route. Figure 7B illustrates means ± SD, wherein an unpaired two-tailed Student's t test was done for statistical analysis (*P < 0.05).

Liver cell preparations = test: Ex vivo treatment of liver cell preparations (SA-β-gal, TUNEL, DAPI staining); type: cell-based, C57/BL6 mice; conditions: old (20-months old) mice, ex vivo 22 h, POG 1.5 µM
Method: Liver cell preparations from young (10-weeks old) and old (20-months old) C57/BL6 mice were treated ex vivo for 22 h with POG (1.5 µM) or solvent. Cells were fixed and stained for SA-β-gal, TUNEL (Terminal deoxynucleotidyl transferase dUTP nick end labeling) and DAPI (4',6-diamidino-2-phenylindole). Percentage of senescent (SA-β-gal-positive) cells present in the viable (TUNEL-negative) liver cell population (Figure 8A) and overall viability of the liver cell population (Figure 8B) was quantified via fluorescence microscopy.

[4] = tested on: Primary mouse embryo fibroblasts (MEF); test: Viability of rotenone-treated MEF with raised cellular NADH (dye exclusion assay); type: cell-based; conditions: 500 nM rotenone 2 h prior to POG exposure (1 µM), viability 22 h later
Method: Increasing cellular NADH levels sensitizes cells towards POG-mediated killing in a H2O2-dependent fashion. Primary mouse embryo fibroblasts (MEF) were stably transduced with a catalase-overexpressing retrovirus or empty virus and exposed to 500 nM rotenone (an NADH dehydrogenase inhibitor used to increase cellular NADH levels via inhibition of the mitochondrial complex I) 2 h prior to POG exposure (1 µM) before measuring cell viabilities 22 h later using a dye exclusion assay (Ghost Dye Red 780, 13-0865-T500, Tonbo). Figure 5 illustrates the results in form of means ± standard deviation (SD).

hydrogen peroxide = test: Europium-tetracycline (EuTc) fluorescence assay for hydrogen peroxide generation; type: biochemical
Excerpt: For a confirmation of the POG redox cycling, hydrogen peroxide formed by peroxygenin from elemental oxygen was quantified. For this purpose, a fluorescence-based europium tetracycline assay in 3-(N-morpholino)propanesulfonic acid (MOPS) buffer at pH 6.9, close to the physiological pH, was adapted for monitoring of hydrogen peroxide released from POG-4 (Wolfbeis et al., 2002; Dürkop et al., 2005; Wu et al., 2005; Schrenkhammer et al., 2007) Reportedly, this assay is based on the formation of an quaternary pentagonal bipyramidal Eu(III)-tetracycline (Tc) complex of the stoichiometry Eu2Tc2 (Karthikeyan et al., 2004) in which one equivalent of hydrogen peroxide forms a bridged peroxide complex (µ-H2O2 ligand) (Dehaen et al. 2009) and upon excitation at 405 nm fluoresces at 616 nm. First, the sensitivity of the assay toward hydrogen peroxide was investigated. For that, different hydrogen peroxide concentrations, ranging from 10 µM to 1000 µM, were used to analyze the fluorescence signal (Figures 2A and 2B, curves 6 to 14 and 26 to 34; curves 6 and 26:1000 µM, curves 7 and 27: 800 µM, curves 8 and 28: 400 µM, curves 9 and 29: 200 µM, curves 10 and 30: 100 µM, curves 11 and 31: 50 µM, curves 12 and 32: 25 µM, curves 13 and 33: 10 µM, curves 14 and […]).
Next, the same assay conditions were applied to quantify hydrogen peroxide formation from POG-4 (V3) (referred to in the following simply as POG-4) having the following formula: [drawing 142] […]
Protocol: The assay was performed in cuvettes with a base area of 1 cm x 1 cm. Measurement of fluorescence intensity was carried out with a fluorescence spectrometer FP-6500 by Jasco at λem = 616 nm (λex = 405 nm). […]
H2O2 calibration: DTT (10 µL, 200 mM; 1mM final concentration) were added to Eu2Tc2 (2 mL) solution in a cuvette and equilibrated by stirring for 5 min at 37 °C until the fluorescence signal was constant. […] All measurements were repeated three times and a mean was calculated. […]

C57/BL6 mice [5] = test: NMU-induced tumorigenesis in vivo (T-cell lymphoma development); conditions: 30 mg NMU/kg i.p. for 5 weeks, POG-4 2 × 0.25 mg kg^-1 i.v. within one week, monitored 300 d; p = 0.0258
Method: The interference of POG-4 with NMU-induced tumorigenesis was established in vivo (Figure 11). For this purpose, 30 days old C57/BL6 mice were mutagenized for 5 consecutive weeks with 30 mg NMU/kg bodyweight (b.w.) intraperitoneally (i.p.) prior to treatment with POG-4 (2 × 0.25 mg kg^-1 body weight intravenously (i.v.) injected within one week) or solvent, respectively. The mice were subsequently monitored for 300 d and T-cell lymphoma development was plotted as the time between first NMU treatment and tumor manifestation in a Kaplan Meier format. Log-rank [Mantel-Cox] test was used to compare solvent- and POG-treated cohorts.

[6] = tested on: Primary mouse fibroblasts (MEF); test: NMU-induced transformation of MEF, soft-agar colony formation; type: cell-based; conditions: 2 mM NMU for 5 weeks, POG-4 1.0 µM, 10 weeks in 0.3 % soft-agar
Method: Primary mouse fibroblasts (MEF) were treated for 5 weeks with 2 mM N-nitroso-N-methylurea (NMU) or solvent to mutagenize their genomes. Selective killing of senescent subpopulation was assessed by measuring the percentage of SA-β-gal positive cells after POG-4 exposure (1.0 µM for 22 h). […] 2 × 10^4 of viable NMU-pre-treated MEF with or without subsequent POG-4 exposure (1.0 µM) from the experiment of Figure 9A were seeded in 0.3 % soft-agar and cultivated for 10 weeks, before formation of colonies (>50 cells/colony) was quantified. Again, means ± SD are illustrated POG-mediated senolysis of DMBA-induced OIS cells was tested; the results are depicted in Figure 10. Like NMU, 7,12-dimethyl-benzoanthracen (DMBA) is known to induce oncogenic mutations across all Ras isoforms. MEF were mutagenized with DMBA (0.25 µg/ml) for 7 days before cells were exposed to increasing concentrations of POG 1 week later. Cell viabilities were measured 22 h later using a dye exclusion assay (right; (Ghost Dye Red 780, 13-0865-T500, Tonbo). SA-β-gal stainings (left) were performed 2 days after POG exposure. Filled circles denote experiments conducted with solvent; filled squares denote experiments conducted with DMBA.

## Cn1nc(/C=C/c2ccccc2)nc2c(=O)n(C)c(=O)nc1-2 [POG-4, (E)-1,6-Dimethyl-3-styrylpyrimido[5,4-e][1,2,4]triazine-5,7(1H,6H)-dione]
C57/BL6 mice [1]
  running time on rotating rod: significantly extended the running time
A549
  senolytic activity against virus-induced senescence: exhibit senolytic activity
[2]; then POG for 22 h
  sensitivity of senescent cells versus non-senescent tumor cells (viability): significantly more sensitive
[2]
  senolytic activity in senescent cells protected by expression of catalase: did not exhibit senolytic activity
[2]; listed as POG
  senolytic activity in senescent cells protected by expression of catalase: lack sensitivity
[3]; senescence-capable p53+/+ Eµ-myc lymphomas, versus DMSO, P = 0.0282
  overall survival: lived significantly longer
[3]; senescence-incapable Eµ-myc;p53-null lymphomas, P > 0.05
  overall survival: failed to realize such benefit
Liver cell preparations
  percentage of senescent liver cells: decreased significantly
[4]
  dependence of activity on cellular NADH levels: relied on increased levels of the reducing equivalent (NADH)
Hydrogen peroxide; 5 µM POG-4, 1 mM NADH
  time at which the maximum concentration was reached: approximately 120 minutes
Hydrogen peroxide; POG 1 µM, NADH 0.1 mM to 5 mM
  hydrogen peroxide concentration in dependence on NADH concentration: higher hydrogen peroxide concentration
Hydrogen peroxide; POG-4 0.1 to 5 µM with 1 mM NADH, MOPS buffer pH 6.9, time frame of 300 min
  generation of H2O2 (fluorescence): continuous generation of H2O2
C57/BL6 mice [5]
  NMU-induced tumorigenesis (time to tumor manifestation): interferes with NMU-induced tumorigenesis in vivo
[6]
  NMU-induced transformation (soft-agar colonies): ablates NMU-induced transformation
